The values that follow come from patent publication US9737517B2, “Pharmaceutical use of hexahydro-dibenzo[a,g]quinolizine compounds” (SHANGHAI INSTITUTE OF MATERIA MEDICA, CHINESE ACADEMY OF …, priority 2013, dated 2017).

Read-outs that look alike come from different tables or passages of the source.

As a reminder, the pKa is the negative logarithm of the acid dissociation constant.

The nature of series [1]: In vitro metabolism in mouse liver microsomes. Type of series: in vitro ADME, mice. How it is done:
(§1) The total volume of each incubation system was 200 μL, and the medium was 100 mM phosphate buffer solution (PBS, pH7.4) comprising a final concentration of 3 μM DC037009 and 2 mM NADPH. A37° C. water bath was used for incubation. After 3 minutes of pre-incubation, various liver microsomes protein were added into the buffer-substrate-cofactors mixture to start reaction. The concentration of liver microsomal protein of various species was 1.0 mg/mL. After reacting 60 min, the reaction was terminated with isovolumetric ice-cold acetonitrile. The total volume of blank was 200 μL, and the medium was 100 mM phosphate buffer solution (PBS, pH 7.4), comprising a final concentration of 3 μM DC037009 and heat inactivated microsomal proteins. All incubation samples were double.
(§2) A 150 μL sample from each of double incubation samples was mixed. A 300 μL of acetonitrile was added, mixed by vortexing for 1 min, and centrifuged 5 min (11000 rpm). The supernatant was placed in a 10 mL tube, and dried in 40° C. with nitrogen stream. The residue was dissolved with 100 μL methanol/water (1:9, v/v). A 10 μL sample was taken for UPLC/Q-TOF MS analysis.
In general terms: Liver microsomes are vesicles of endoplasmic reticulum, rich in cytochrome P450 enzymes.

Series [2] in a line: In vitro metabolism in rat liver microsomes. Type of series: in vitro ADME. As to the method:
as §1, §2

A short description of series [3]: In vitro metabolism in monkey liver microsomes. The class given is in vitro ADME. How it is done:
as §1, §2

Series [4] can be described thus: Stability of the compound on heating. The class given is physicochemical. The conditions noted are these: heated at 80° C. for 24 hours. How it is done:
Compound DC037009 was heated at 80° C. for 24 hours, and the compound purity only varied 0.5%.

A further series deals with rat seminal vesicle. Description: Seminal vesicle contraction caused by electrical stimulation of hypogastric nerve in normal rats. The class given is in vivo. The conditions noted are these: P>0.05. The text has this:
Effect of DC037009 on Seminal Vesicle Contraction Caused by Electrical Stimulation of Hypogastric Nerve in Normal Rats

The next series can be described thus: pKa determination. The class given is physicochemical.
Where [5] appears, read: 3 μM DC037009, 1.0 mg/mL microsomal protein, NADPH, 60 min, UPLC/Q-TOF MS.

For the compound `COc1cc2c(cc1OC)CN1CCc3cc4c(cc3[C@@H]1C2)OCO4` [DC037009, S-(−)-2,3-methylenedioxy-10,11-dimethoxy-5,8,13,13a-tetrahydro-6H-dibenzo[a,g]quinolizine], the “Mass area, mice” value in series [1] (setting [5]) is 6.3. For the same compound, in series [1] (60 min incubation), the “kinds of metabolites detected in mouse liver microsome” value is “eight” and the “metabolic stability in mouse liver microsome” value is reported as “unstable”. Further, the “Mass area, rat” value in series [2] (setting [5]) came to 115.4. For the same compound, the “kinds of metabolites detected in rat liver microsome” value in series [2] (60 min incubation) was “eight”. In addition, in series [3] (setting [5]), the “Mass area, monkey” value turned out to be 1.6. In series [3] (60 min incubation), the “kinds of metabolites detected in monkey liver microsome” value is on record as “seven” and the “metabolic stability in monkey liver microsome” value was “unstable”. Moreover, in series [4], the “variation of compound purity” value is recorded as 0.5%. Moreover, the “effect on contraction amplitude and area under contraction curve in rat seminal vesicle induced by electrical stimulation” value in the series on rat seminal vesicle is recorded as “no significant inhibitive effect”. The pKa in the series “pKa determination” (methanol, solvent CH3OH, read-out: pKa (CH3OH)) was 6.81. For the same compound, the pKa in “pKa determination” (water, solvent H2O, read-out: pKa (H2O)) stood at 7.28.
